According to patent US12570656B2, “Purine compounds for treating disorders” (MARVEL BIOTECHNOLOGY, priority 2020, dated 2026):
Where “and” joins values, the source holds several entries; their conditions need not be identical. Equal entries are not always repeated. Where two headings read alike, the source gives them in different places.

How the values were obtained:
ADORA2A = ADORA2A (Homo sapiens, UniProt P29274); assay: GPCR screening, calcium flux (calcium mobilization), antagonist format; format: cell-based
Description: To ascertain whether the compounds are suitable A2aR antagonists, the compounds of formulae I, II, III, and IV were subjected to GPCR screening using A2aR as the target. The screening was done using the GPCR Screening and Profiling Services by Eurofins DiscoverX Corporation.
The compounds of formulae I, II, III, and IV were screened for GPCR activity using A2aR as the target.
Cell lines were expanded from freezer stocks according to standard procedures. Cells were seeded in a total volume of 20 μL into black-walled, clear-bottom, Poly-D-lysine coated 384-well microplates and incubated at 37° C. for the appropriate time prior to testing.
Assays were performed in 1× Dye Loading Buffer consisting of 1× Dye, 1× Additive A and 2.5 mM Probenecid in HBSS/20 mM Hepes. Probenicid was prepared fresh. Cells were loaded with dye prior to testing. Media was aspirated from cells and replaced with 20 μL Dye Loading Buffer. Cells were incubated for 30-60 minutes at 37° C.
For antagonist determination, cells were pre-incubated with sample followed by agonist challenge at the EC80 concentration. Intermediate dilution of sample stocks was performed to generate 3× sample in assay buffer. After dye loading, cells were removed from the incubator and 10 μL 3× sample was added. Cells were incubated for 30 minutes at room temperature in the dark to equilibrate plate temperature. Vehicle concentration was 1%. Compound antagonist activity was measured on a FLIPR Tetra (MDS). Calcium mobilization was monitored for 2 minutes and 10 μL EC80 agonist in HBSS/20 mM Hepes was added to the cells 5 seconds into the assay.
For antagonist and negative allosteric modulation mode assays, percentage inhibition is calculated using the following formula: % Inhibition=100%×(1−(mean RFU of test sample−mean RFU of vehicle control)/(mean RFU of EC80 control−mean RFU of vehicle control)).
When the calcium was released, the fluorescence of the dye was increased and the increase was measured in real-time.
FIGS. 1 to 6 show percent reacted (Y) versus concentration in μM (X). Compounds were tested in antagonist mode with the requested GPCR Biosensor Assay. For the antagonist assay, data was normalized to the maximal and minimal response observed in the presence of EC80 ligand and vehicle.

[1] = Plasma pharmacokinetics in male CD-1 mice (1 mg/kg i.v. or 3 mg/kg p.o.); details: CD-1, mouse, in vivo
Description: (§1) Male CD-1 mice were given either bolus 1 mg/kg i.v. or 3 mg/kg p.o. of the indicated compounds and plasma or brain concentrations were measured.
(§2) Where: • C0 concentration extrapolated to time zero following an i.v. dose • tmax time at which maximum concentration is observed • Cmax maximum observed concentration • Apparent t1/2 apparent terminal half-life • AUC0-tlast area under the concentration vs time curve from time 0 to the time of the last measurable concentration • AUC0-inf area under the concentration vs time curve from time 0 to infinity • CL systemic clearance • MRT0-inf mean residence time from time zero to infinity • Vss steady-state volume of distribution • F oral bioavailability=(Dose^iv*AUC^po)/(Dose^po*AUC^iv)*100

[2] = Brain pharmacokinetics and brain/plasma ratio in male CD-1 mice (1 mg/kg i.v.); format: in vivo; details: for Brain concentration / concentration at 5 min / concentration at 0.25 h / concentration at 0.5 h / concentration at 1 h / concentration at 2 h / concentration at 4 h / concentration at 6 h / concentration at 8 h: 1 mg/kg bolus i.v.; for concentration at 5 min / concentration at 0.25 h / concentration at 0.5 h / concentration at 1 h / concentration at 2 h / concentration at 4 h / concentration at 6 h / concentration at 8 h: intravenous, 1 mg/kg
Description: as §1, §2

[3] = male, CD-1, mouse, iv, brain, i.v. 1 mg/kg

ADORA2A, sequence (P29274 whole entry): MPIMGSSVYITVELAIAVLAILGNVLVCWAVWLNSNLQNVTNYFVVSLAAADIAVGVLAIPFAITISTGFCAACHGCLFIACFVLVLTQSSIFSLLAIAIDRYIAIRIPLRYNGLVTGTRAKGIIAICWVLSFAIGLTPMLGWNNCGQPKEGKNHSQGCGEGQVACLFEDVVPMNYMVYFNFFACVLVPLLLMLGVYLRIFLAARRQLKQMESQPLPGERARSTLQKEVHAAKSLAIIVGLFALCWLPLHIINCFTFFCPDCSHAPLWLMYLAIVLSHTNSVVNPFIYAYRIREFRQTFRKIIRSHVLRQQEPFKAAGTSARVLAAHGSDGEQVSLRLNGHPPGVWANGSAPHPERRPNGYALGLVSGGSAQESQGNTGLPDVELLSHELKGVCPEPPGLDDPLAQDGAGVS

## CCn1c(=S)c2c(nc(/C=C/c3ccc(OC)c(OC)c3)n2C)n(CC)c1=O [Formula III, 8-[(E)-2-(3,4-dimethoxyphenyl)vinyl]-1,3-diethyl-7-methyl-6-thioxo-purin-2-one]
ADORA2A; Antagonist format
  Curve Bottom: 5.0984
  Curve Top: 98
  Hill: 1.3853
ADORA2A; read-out: Max Response
  Emax: 97.1%
[1]
  bioavailability: 21.5%
[1]; iv, 1 mg/kg
  AUC(0-inf): 1580 ng·h/mL
  AUC(0-t): 1280 ng·h/mL
  Cmax: 360 ng/mL
  MRT inf: 4.73 h
  Tmax: 15 min
  Vd: 3 L/kg
  clearance: 10.6 mL/min/kg
  half-life: 203 min
[1]; po, 3 mg/kg
  AUC(0-inf): 1020 ng·h/mL
  AUC(0-t): 988 ng·h/mL
  Cmax: 124 ng/mL
  MRT inf: 7.55 h
  Tmax: 60 min
  half-life: 266 min
[2]; 5 min, individual animals 1-3
  Brain concentration: 383 ng/g and 368 ng/g
[2]; 0.25 h, individual animals 1-3
  Brain concentration: 454 ng/g and 394 ng/g
[2]; 0.5 h, individual animals 1-3
  Brain concentration: 457 ng/g and 304 ng/g
[2]; 1 h, individual animals 1-3
  Brain concentration: 348 ng/g and 354 ng/g
[2]; 2 h, individual animals 1-3
  Brain concentration: 239 ng/g and 224 ng/g
[2]; 4 h, individual animals 1-3
  Brain concentration: 165 ng/g and 113 ng/g
[2]; 6 h, individual animals 1-3
  Brain concentration: 94.1 ng/g and 81.5 ng/g
[2]; 8 h, individual animals 1-3
  Brain concentration: 63.9 ng/g and 38.8 ng/g
[2]; brain, i.v. 1 mg/kg
  AUC0-tlast: 1315 ng·h/g
  AUC(0-inf): 1517 ng·h/g
[2]; male, CD-1, mouse, brain, 5 min, individual animals 1-3, read-out: Brain concentration
  concentration at 5 min: 490 ng/g
[2]; male, CD-1, mouse, brain, 5 min, read-out: Brain concentration, Mean
  concentration at 5 min: 414 ng/g
[2]; male, CD-1, mouse, brain, 0.25 h, individual animals 1-3, read-out: Brain concentration
  concentration at 0.25 h: 379 ng/g
[2]; male, CD-1, mouse, brain, 0.25 h, read-out: Brain concentration, Mean
  concentration at 0.25 h: 409 ng/g
[2]; male, CD-1, mouse, brain, 0.5 h, individual animals 1-3, read-out: Brain concentration
  concentration at 0.5 h: 379 ng/g
[2]; male, CD-1, mouse, brain, 0.5 h, read-out: Brain concentration, Mean
  concentration at 0.5 h: 380 ng/g
[2]; male, CD-1, mouse, brain, 1 h, individual animals 1-3, read-out: Brain concentration
  concentration at 1 h: 262 ng/g
[2]; male, CD-1, mouse, brain, 1 h, read-out: Brain concentration, Mean
  concentration at 1 h: 321 ng/g
[2]; male, CD-1, mouse, brain, 2 h, individual animals 1-3, read-out: Brain concentration
  concentration at 2 h: 212 ng/g
[2]; male, CD-1, mouse, brain, 2 h, read-out: Brain concentration, Mean
  concentration at 2 h: 225 ng/g
[2]; male, CD-1, mouse, brain, 4 h, individual animals 1-3, read-out: Brain concentration
  concentration at 4 h: 96.9 ng/g
[2]; male, CD-1, mouse, brain, 4 h, read-out: Brain concentration, Mean
  concentration at 4 h: 125 ng/g
[2]; male, CD-1, mouse, brain, 6 h, individual animals 1-3, read-out: Brain concentration
  concentration at 6 h: 90.1 ng/g
[2]; male, CD-1, mouse, brain, 6 h, read-out: Brain concentration, Mean
  concentration at 6 h: 88.6 ng/g
[2]; male, CD-1, mouse, brain, 8 h, individual animals 1-3, read-out: Brain concentration
  concentration at 8 h: 45.5 ng/g
[2]; male, CD-1, mouse, brain, 8 h, read-out: Brain concentration, Mean
  concentration at 8 h: 49.4 ng/g
[2]; [3]
  Cmax: 414 ng/g
  Tmax: 5 min
[2]; male, CD-1, mouse, iv, brain, i.v. 1 mg/kg, read-out: Apparent t1/2 (converted)
  half-life: 170 min
[2]; male, CD-1, mouse, iv, brain, i.v. 1 mg/kg, read-out: MRT0-inf
  MRT inf: 3.94 h
